Reference: US20090048310A1, “AGENT FOR PREVENTION/TREATMENT OF DISEASE CAUSED BY ACYCLOVIR-RESISTANT HERPESVIRUS” (ASTELLAS PHARMA INC., priority 2005, published 2009)
Like-named read-outs stand apart in the source and are kept apart here.

Columns and labels:
[1] = test system: ACV-resistant HSV-1 (A4-3^ACV-R strain); test: Anti-ACV-resistant HSV-1 activity assay (plaque reduction); type: cell-based
Method: A total of from 100,000 to 150,000 cells of an African green monkey kidney cell (Vero cell) were inoculated into a 24 well plate using a growth medium (Eagle MEM (Nissui) supplemented with 10% FBS) and cultured at 37° C. for 3 to 4 days under 5% CO2 until they became a monolayer. After washing the cells with a maintenance medium, ACV-resistant HSV-1 (A4-3^ACV-R strain) which had been diluted with the maintenance medium (Eagle MEM supplemented with 2% FBS) to a viral titer of from 100 to 250 pfu/200 μl was inoculated therein in 200 μl/well portions. The plate was centrifuged at room temperature at 1500 rpm for 40 minutes and then incubated at 37° C. for 1 hour under 5% CO2 for infection with HSV-1. After washing three times with the maintenance medium, 100 μl of each test drug diluted to an appropriate concentration with the maintenance medium was added to each well. After culturing the cells at 37° C. for 3 to 4 days under 5% CO2, 10% formalin/PBS was added thereto in 200 μl/well portions, and the cells were fixed for 2 to 3 hours. The fixing liquid and culture supernatant were discarded and the plate was washed with water, and then staining was carried out for 2 to 3 minutes by adding a staining liquid (0.025% Crystal Violet) in 100 μl/well portions, and the plate was washed with water and dried at 37° C. The Vero cells infected with HSV-1 cause cell death, and plaques consisting of the dead cells are formed in the mono-layered Vero cells.

[2] = test system: ACV-resistant VZV (Kanno-Br^ACV-R strain); test: Anti-ACV-resistant VZV activity assay (plaque reduction); type: cell-based, varicella zoster virus (VZV); conditions: Human alphaherpesvirus 3, HEF, read-out: EC50, concentration which inhibits 50% of the number of plaques (Example 1)
Method: This assay was carried out in reference to the method described by Shigeta S. in The Journal of Infectious Diseases, 147, 3, 576-584, (1983). Specifically, 10,000 cells of human embryonic fibroblast (HEF) were inoculated into a 96 well microtiter plate using a growth medium (Eagle MEM (Nissui) supplemented with 10% (v/v) fetal bovine serum (FBS, Sigma)) and cultured at 37° C. for 4 days under 5% CO2 until they became a monolayer. […] The plate was centrifuged at room temperature at 2000 rpm for 20 minutes and then incubated at 37° C. for 3 hours under 5% CO2 for infection with VZV. After washing three times with the maintenance medium 100 μl of each test drug diluted to an appropriate concentration with the maintenance medium was added to each well. After culturing the cells at 37° C. for 3 to 4 days under 5% CO2, 10% formalin/PBS was added thereto in 100 μl/well portions, and the cells were fixed for 2 to 3 hours. The fixing liquid and culture supernatant were discarded and the plate was washed with water, and then staining was carried out for 2 to 3 minutes by adding a staining liquid (0.025% Crystal Violet) in 50 μl/well portions, and the plate was washed with water and dried at 37° C. The HEF cells infected with VZV cause cell death, and plaques consisting of the dead cells are formed in the mono-layered HEF cells.

ACV-resistant HSV-1 = ACV-resistant HSV-1 infection lethal model in nude mice; type: in vivo, nude mouse (CD-1(ICR)-nu/nu); conditions: 100 mg/kg oral twice a day for 15 days; for death suppressing effect (in words): 17 days after infection
Method: ACV-resistant HSV-1 (3×10^6 pfu) was inoculated into the peritoneal cavity of each nude mouse (CD-1(ICR)-nu/nu, […], female, Charles River Japan) to cause infection with the virus. Each compound to be tested was made into a methyl cellulose suspension and orally administered at a dose of 100 mg/kg, twice a day for 15 days starting 1 hour after the infection (from 0 to 14 days after the infection).
During 17 days after the infection, death of the mice caused by ACV-resistant HSV-1 infection was observed every day, and the number of survived animals was counted.

HSV-1 strain WT-51 = test: Cutaneous HSV-1 infection mouse model; type: in vivo, HR-1 hairless mouse; conditions: oral, methyl cellulose suspension, 10 mg/kg twice a day for 5 days, scores for 17 days
Method: Using a cutaneous HSV-1 infection mouse model prepared in reference to the method of H. Machida et al. (Antiviral Res., 1992, 17, 133-143), the in vivo […] of the compounds of the present invention was tested using an animal model. The skin of each HR-1 hairless mouse [female, 7 weeks of age] was scratched lengthwise and breadthwise several times using a needle and a virus suspension (HSV-1 strain WT-51, 1.5×10^4 PFU/15 μl) was dropped to the scarified region for infection, while anesthetized with diethyl ether.
Tested compounds were administered orally as a methyl cellulose suspension, except for compounds marked with asterisk which were dissolved in 20% Cremophor EL (Nacalai Tesque)/20% polyethylene glycol (PEG) 400/60% H2O solution, starting at 3 hours after the infection, and then at a dose of 10 mg/kg twice a day for 5 days. The symptom of the skin lesion caused by HSV-1 infection were classified in the following scores for 17 days:
Score 0: no signs of infection.
Score 1: localized, barely perceptible small vesicles.
Score 2: slight vesicle spread.
Score 3: large patches of vesicles formed.
Score 4: zosteriform vesicles.
Score 5: large patches of ulcers formed.
Score 6: zosteriform with severe large ulcers.
Score 7: hind limb paralysis or death.
The AUC value was calculated from each group's mean disease score, and the disease inhibitory rate of the group administered with each test compound to the placebo group was calculated using the AUC.

[3] = Human alphaherpesvirus 1, Vero, read-out: EC50, concentration which inhibits 50% of the number of plaques (Example 2), ACV-resistant HSV-1 A4-3 ACV-R strain in Vero cells

`Nc1nc2c(ncn2COCCO)c(=O)[nH]1` [ACV, acyclovir] gave an EC50 [1, 3] of 68 µM and an EC50 ([1]; read-out: EC50, concentration which inhibits 50% of the number of plaques (Example 2), ACV-resistant HSV-1 A4-3 ACV-R strain in Vero cells) of 120 µM.

`Cc1ccc(N(CC(=O)Nc2ccc(-c3cocn3)cc2)C(=O)C2CCS(=O)(=O)CC2)cc1` [Preparation 2, N-(4-methylphenyl)-N-(2-{[4-(1,3-oxazol-4-yl)phenyl]amino}-2-oxoethyl)tetrahydro-2H-thiopyran-4-carboxamide 1,1-dioxide] was tested, and the EC50 [2] was 0.035 µM, the “death suppressing effect (in words)” value (ACV-resistant HSV-1) was “completely suppressed death of the mice” and the “The number of survived animals (n = 10)” value (ACV-resistant HSV-1; day 0 after infection) was 10. The “The number of survived animals (n = 10)” value (ACV-resistant HSV-1; day 1 after infection) was 10, the “The number of survived animals (n = 10)” value (ACV-resistant HSV-1; day 2 after infection) was 10 and the “The number of survived animals (n = 10)” value (ACV-resistant HSV-1; day 4 after infection) was 10. For the same compound, the “The number of survived animals (n = 10)” value (ACV-resistant HSV-1; day 5 after infection) was 10, the “The number of survived animals (n = 10)” value (ACV-resistant HSV-1; day 6 after infection) was 10 and the “The number of survived animals (n = 10)” value (ACV-resistant HSV-1; day 7 after infection) was 10. The “The number of survived animals (n = 10)” value (ACV-resistant HSV-1; day 8 after infection) was 10, the “The number of survived animals (n = 10)” value (ACV-resistant HSV-1; day 9 after infection) was 10 and the “The number of survived animals (n = 10)” value (ACV-resistant HSV-1; day 10 after infection) was 10. For the same compound, the “The number of survived animals (n = 10)” value (ACV-resistant HSV-1; day 11 after infection) was 10, the “The number of survived animals (n = 10)” value (ACV-resistant HSV-1; day 12 after infection) was 10 and the “The number of survived animals (n = 10)” value (ACV-resistant HSV-1; day 14 after infection) was 10. For the same compound, the “The number of survived animals (n = 10)” value (ACV-resistant HSV-1; day 16 after infection) was 10, the “The number of survived animals (n = 10)” value (ACV-resistant HSV-1; day 17 after infection) was 10 and the EC50 [1, 3] was 0.035 µM.

For `Cc1cccc(C)c1N(CC(=O)Nc1ccc(-c2ncon2)cc1)C(=O)C1CCS(=O)(=O)CC1` [Preparation 27, N-(2,6-dimethylphenyl)-N-(2-{[4-(1,2,4-oxadiazol-3-yl)phenyl]amino}-2-oxoethyl)tetrahydro-2H-thiopyran-4-carboxamide 1,1-dioxide], the EC50 [2] was 0.082 µM, the “death suppressing effect (in words)” value (ACV-resistant HSV-1) was “completely suppressed death of the mice” and the “The number of survived animals (n = 10)” value (ACV-resistant HSV-1; day 0 after infection) was 10. The “The number of survived animals (n = 10)” value (ACV-resistant HSV-1; day 1 after infection) was 10, the “The number of survived animals (n = 10)” value (ACV-resistant HSV-1; day 2 after infection) was 10 and the “The number of survived animals (n = 10)” value (ACV-resistant HSV-1; day 4 after infection) was 10. The “The number of survived animals (n = 10)” value (ACV-resistant HSV-1; day 5 after infection) was 10, the “The number of survived animals (n = 10)” value (ACV-resistant HSV-1; day 6 after infection) was 10 and the “The number of survived animals (n = 10)” value (ACV-resistant HSV-1; day 7 after infection) was 10. For the same compound, the “The number of survived animals (n = 10)” value (ACV-resistant HSV-1; day 8 after infection) was 10, the “The number of survived animals (n = 10)” value (ACV-resistant HSV-1; day 9 after infection) was 10 and the “The number of survived animals (n = 10)” value (ACV-resistant HSV-1; day 10 after infection) was 10. The “The number of survived animals (n = 10)” value (ACV-resistant HSV-1; day 11 after infection) was 10, the “The number of survived animals (n = 10)” value (ACV-resistant HSV-1; day 12 after infection) was 10 and the “The number of survived animals (n = 10)” value (ACV-resistant HSV-1; day 14 after infection) was 10. The “The number of survived animals (n = 10)” value (ACV-resistant HSV-1; day 16 after infection) was 10, the “The number of survived animals (n = 10)” value (ACV-resistant HSV-1; day 17 after infection) was 10 and the EC50 [1, 3] was 0.068 µM.

In the case of `Cc1cc(N(CC(=O)Nc2ccc(-c3ncon3)cc2)C(=O)C2CCS(=O)(=O)CC2)ccc1Cl` [Preparation 37, N-(4-chloro-3-methylphenyl)-N-(2-{[4-(1,2,4-oxadiazol-3-yl)phenyl]amino}-2-oxoethyl)tetrahydro-2H-thiopyran-4-carboxamide 1,1-dioxide], the “Inhibition ratio (%) (disease inhibitory rate vs placebo from AUC of mean disease score)” value (HSV-1 strain WT-51) is reported as 100%.

With `Cc1ccc(N(CC(=O)Nc2ccc(-c3ncon3)cc2)C(=O)C2CCS(=O)(=O)CC2)c(C)c1F` [Preparation 39, N-(3-fluoro-2,4-dimethylphenyl)-N-(2-{[4-(1,2,4-oxadiazol-3-yl)phenyl]amino}-2-oxoethyl)tetrahydro-2H-thiopyran-4-carboxamide 1,1-dioxide] the “Inhibition ratio (%) (disease inhibitory rate vs placebo from AUC of mean disease score)” value (HSV-1 strain WT-51) was 80%.
